# Test results published in ChEMBL document CHEMBL4145535, “Recent updates for designing CCR5 antagonists as anti-retroviral agents” (Eur J Med Chem, 2018).
# Experiments:
# [1] = molecular target: T1, C-C chemokine receptor type 5 (Homo sapiens, UniProt P51681); assay: Antagonist activity at CCR5 (unknown origin) by HTS assay; format: functional
# Target sequence in this assay (P51681 whole entry): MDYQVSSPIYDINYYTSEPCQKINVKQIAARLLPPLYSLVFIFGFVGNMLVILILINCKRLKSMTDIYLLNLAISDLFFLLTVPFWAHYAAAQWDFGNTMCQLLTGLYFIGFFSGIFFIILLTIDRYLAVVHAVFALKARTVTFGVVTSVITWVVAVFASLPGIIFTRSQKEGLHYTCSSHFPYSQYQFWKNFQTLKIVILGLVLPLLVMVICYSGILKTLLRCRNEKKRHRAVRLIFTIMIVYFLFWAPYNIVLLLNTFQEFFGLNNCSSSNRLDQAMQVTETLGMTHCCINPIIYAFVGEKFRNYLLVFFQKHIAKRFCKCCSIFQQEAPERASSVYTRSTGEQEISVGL
# [2] = molecular target: T1, C-C chemokine receptor type 5; assay: Displacement of [125I]-RANTES from CCR5 in mouse NIH/3T3 cells after 1 hr
# Target sequence in this assay (P51681 whole entry, looked up): as the sequence (P51681 whole entry) above
SMILES,IC50 [1] [nM],IC50 [2] [nM]
C1NCC2CNCC12 (configuration not stated),7,–
C=CCN(C(=O)OCc1ccc([N+](=O)[O-])cc1)C1CCN(C[C@H]2CN(C(=O)C3CCCC3)C[C@]2(O)c2ccccc2)CC1 [NIFEVIROC],–,2.9
